This note sets out measurements from ChEMBL document CHEMBL1201862, “PubChem BioAssay data set” (2004).

Among the test systems are DMS-114; DMS-273; HOP-18; KM-20L2; M19-MEL; XF498; BT-549; LXFL 529.
Holding throughout (test): NCI anticancer screen, dose series, 48 h

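A five-concentration, 48-hour dose response in 96-well plates underlies each endpoint, interpolated linearly between surrounding concentrations. GI50 is the concentration that inhibits growth by half.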 Activity calls are given as the source filed them. Rule as the data show it: active = GI50 up to about 1.1 µM and inactive = higher. Where a SMILES comes first, the peptide text is derived from it. [ ]: non-standard residue; d: D form. The star is where a group is joined. NMeAc5c = CNC1(C(=O)O)CCCC1; Boc = CC(C)(C)OC(=O)*; OBn = c1ccc(CO*)cc1 Where only a bound is given, the exact number is not on record here.

Take `CC(C)NC(=O)OCc1c2c(n(C)c1COC(=O)NC(C)C)-c1ccccc1CC2`: the GI50 is 5.43 µM (inactive) in the test with DMS-114; 13.9 µM (inactive) in the test with DMS-273; 2.28 µM (inactive) in the test with HOP-18; 14 µM (inactive) in the test on KM-20L2; 9.89 µM (inactive) in the test on M19-MEL; 13.1 µM (inactive) with XF498.
Take `NC(Cc1ccccc1)C(=O)N[C@H]1c2ccsc2/C(=N/O)[C@H]1O` (stereo partly specified): in the test on BT-549, the GI50 was > 100 µM (inactive).
As for `N#C/N=C(/N)NCc1ccccc1`, the GI50 in the test with DMS-114, with DMS-273, in the test on KM-20L2, in the test with LXFL 529 and in the test with M19-MEL was > 100 µM (inactive) each time.
Take `O=P(Oc1ccc(Cl)cc1)(Oc1ccc(Cl)cc1)N1CC1`: in the test with BT-549, the GI50 was > 10 µM (inactive).
In the case of `O=C1CCCCCCCCCCC1CN1CCCCC1` (stereo unspecified), the GI50 was 60.5 µM (inactive) with DMS-114; > 100 µM (inactive) in the test with DMS-273; 31.3 µM (inactive) with KM-20L2; > 100 µM (inactive) in the test on LXFL 529; > 100 µM (inactive) in the test on M19-MEL; 89.5 µM (inactive) in the test on XF498.
For the compound `CCOC(=O)[C@H]1Nc2ccc(C)cc2C2c3ccccc3CC21` (stereo partly specified), the GI50 in the test on DMS-114, with DMS-273, with HOP-18, with KM-20L2, with LXFL 529 and with M19-MEL was > 100 µM (inactive) throughout.
For `Cc1ccc(NC(=O)CSc2nnc(Cc3ccccc3)o2)cc1`, the GI50 in the test with DMS-114 is 53.2 µM (inactive); with DMS-273 it was > 100 µM (inactive); with HOP-18 it was > 100 µM (inactive); with KM-20L2, > 100 µM (inactive); in the test with LXFL 529, > 100 µM (inactive); with M19-MEL, > 100 µM (inactive).
In the case of `Cc1ccc(S(=O)ON2CCC(C(=O)O)(c3ccccc3)CC2)cc1` (stereo unspecified), the GI50 in the test on BT-549 is > 100 µM (inactive).
Regarding `CC(Oc1ccc(OCC2CCCCC2)cc1)C(=O)NCc1ccco1` (stereo unspecified), the GI50 in the test on DMS-114 is 18.4 µM (inactive); in the test with DMS-273 it was 25.5 µM (inactive); in the test with HOP-18 it was 89.7 µM (inactive); in the test on LXFL 529, 35.6 µM (inactive); with M19-MEL, 40.7 µM (inactive); in the test on XF498, 17.7 µM (inactive).
As for `CCCCCCCCOc1ccc(/C=C/C2=[N+](CCO)CCO2)cc1`, the GI50 with BT-549 was 3.44 µM (inactive).
On the same count and under the same terms, with `ClC1(Cl)C2CCOC21n1cnc2ccccc21` (stereo unspecified) the figure was > 100 µM (inactive).
The same measure, in the same setting: under `COCn1cnc2c(=O)n(-c3ccc(OC)cc3)c(=S)n(-c3ccc(OC)cc3)c21` stands > 100 µM (inactive); under `N#Cc1c(C#N)c(-c2ccccc2)n(/N=C\c2ccccc2)c1N`, 18.7 µM (inactive); under `CC(C)(C)OC(=O)NCC(C#N)CNC(=O)OC(C)(C)C`, > 100 µM (inactive).
`COc1cccc(/C=C2\C(=O)N(C(=O)c3ccc(NC(C)=O)cc3)N=C2C)c1`: the GI50 in the test with DMS-114, with DMS-273, in the test on M19-MEL and with XF498 was > 100 µM (inactive) each time.
Consider `CNNC1=NS(=O)(=O)c2cc(C(=O)OC)c(Cl)cc2S1`, for which the GI50 with BT-549 was > 10 µM (inactive).
In the case of `CCO/C([O-])=C(\C(=O)c1ccccc1)[n+]1c(C)sc2ccccc21`, the GI50 with DMS-114 was 32.3 µM (inactive); in the test with DMS-273, > 100 µM (inactive); with HOP-18, 20 µM (inactive); in the test with KM-20L2, > 100 µM (inactive); in the test on LXFL 529 it was 54.1 µM (inactive); in the test with M19-MEL it was 18.4 µM (inactive).
In the case of `CCCCc1ccc(Nc2cc(=O)n(C)c(=O)[nH]2)cc1`, the GI50 in the test with BT-549 is > 100 µM (inactive).
Still for that read-out and setting: under `Oc1ccc(/C=C/c2cccc(/C=C/c3ccc(O)c(O)c3)n2)cc1O` stands 10.9 µM (inactive); under `CC(C)Oc1cccc(N2C(NCc3c[nH]c4ccccc34)=Nc3ccncc3S2(=O)=O)c1`, 34.8 µM (inactive); under `COc1ccc(-n2c(N)c(C#N)c(C#N)c2-c2ccccc2)cc1`, 19.1 µM (inactive).
Same read-out and setting: under `N=c1sc(N2CCOCC2)nn1CC(=O)c1ccccc1` stands > 100 µM (inactive); under `Cc1cccc(C)c1/N=N/c1ccc(O)c(CN(C)C)c1`, 56.5 µM (inactive).
Same read-out and setting: with `COC(CNC(=O)C(C)NC(=O)C(C)NC(=O)c1ccccc1)OC` (stereo unspecified) the figure was > 100 µM (inactive); with `CC(C)(Oc1ccc(C2C[C@H]2Cl)cc1)C(=O)O` (stereo partly specified), > 100 µM (inactive).
For the compound `Cc1ccc(S(=O)(=O)NNC(C[N+](=O)[O-])c2ccccc2)cc1` (stereo unspecified), the GI50 in the test with BT-549 is 15.6 µM (inactive).
As for `Cc1cc(C)nc(NS(=O)(=O)c2ccc(NC(=O)COC(=O)c3cccc4c(=O)c5ccccc5[nH]c34)cc2)n1`, the GI50 was 56.5 µM (inactive) in the test with DMS-114; 41.2 µM (inactive) in the test on DMS-273; 38.6 µM (inactive) in the test on KM-20L2; 39.8 µM (inactive) with LXFL 529; 20.4 µM (inactive) in the test on M19-MEL; 33.3 µM (inactive) with XF498.
Regarding `CC(=O)c1c2c(cc3c1CC1(C3)Cc3cc4c(c(C(=O)O)c3C1)CCC4)CCC2` (stereo unspecified), the GI50 is 36.3 µM (inactive) in the test with DMS-114; 35.6 µM (inactive) with DMS-273; 79.8 µM (inactive) in the test on HOP-18; 40.7 µM (inactive) with LXFL 529; 37 µM (inactive) in the test on M19-MEL; 57.1 µM (inactive) with XF498.
Take `Cc1c2ccccc2c(CSC(=N)N)c2ccccc12`: in the test on BT-549, the GI50 is 0.902 µM (active).
Regarding `CC(=O)CC(=O)ON(C)C(=O)Cc1ccccc1`, the GI50 in the test on DMS-114, in the test with DMS-273, with KM-20L2, in the test on LXFL 529, with M19-MEL and with XF498 was > 100 µM (inactive) throughout.
In the case of `N#CC1=C2SCCN2C(=O)C(C#N)C12CCCCC2` (stereo unspecified), the GI50 in the test on BT-549 is > 100 µM (inactive).
The same measure, in the same setting: under `CC1(C)CCCC(C)(C2CCC3(C)C2C(O)CC2C4(C)CCC(O)C(C)(C)C4CCC23C)O1` (stereo unspecified) stands > 100 µM (inactive); under `O=C(O)CSc1ccc(N=C=S)cc1`, 56.2 µM (inactive); under `CN(C(=O)C(Cc1ccccc1)NC(=O)OC(C)(C)C)C1(C(=O)NC(Cc2ccccc2)C(=O)OCc2ccccc2)CCCC1` (stereo not drawn) (Boc-Phe-[NMeAc5c]-Phe-OBn; configuration not given here), > 100 µM (inactive).
For `O=C(Cn1ccnc1[N+](=O)[O-])c1ccc(F)cc1`, the GI50 in the test with DMS-114, in the test on DMS-273, with HOP-18, in the test with KM-20L2, in the test with LXFL 529 and with M19-MEL was > 100 µM (inactive) each time. The GI50 in the test on XF498 is > 100 µM (inactive).
With `S=c1sscc1N1CCSc2ssc(=S)c21`, the GI50 with BT-549 is 37 µM (inactive).
With `CCN(CC)C1Oc2cc3c(cc2C(c2cc(OC)c(OC)c(OC)c2)C1C)OCO3` (stereo unspecified), the GI50 with BT-549 was 7.1 µM (inactive).
Still for that read-out and setting: with `COC(=O)C1CC(C=[N+](C)C)=C(SC)N1` (stereo unspecified) the figure was > 100 µM (inactive); with `C=C(C)[C@@H]1CC[C@@H](C)[C@](O)([C@@H]2C[C@@H]([C@H](COC(=O)c3ccccc3)OC(=O)c3ccccc3)OC2=O)C1`, > 100 µM (inactive); with `CC12CC(OC(=O)[C@]1(C)O)[C@@H]([C@]1(O)CC[C@H]3[C@@H]4C[C@H]5O[C@]56[C@@H](O)C=CC(=O)[C@]6(C)[C@H]4CC[C@@]31C)C2` (stereo partly specified), 4.06 µM (inactive).
Take `Cc1cc(-n2nnc(C(=O)O)c2-c2ccccc2)c2ccc(Cl)cc2n1`: in the test with BT-549, the GI50 is > 100 µM (inactive).
As for `CC(=O)Oc1cc(Cl)c(OC(C)=O)c2c(OC(C)=O)c(C)c(O[Si](C)(C)C(C)(C)C)cc12`, the GI50 with DMS-114 was 3 µM (inactive); in the test with DMS-273, 5.47 µM (inactive); in the test with KM-20L2 it was 17.4 µM (inactive); in the test with XF498 it was 17.5 µM (inactive).
On to `CCOC(=O)Cc1nc2cc(F)c(F)cc2[nH]c1=O`, for which the GI50 with BT-549 was > 100 µM (inactive).
The same measure, in the same setting: under `C[n+]1c2ccccc2c(C(=O)Nc2ccc(S(=O)(=O)Nc3ncccn3)cc2)c2ccccc21` stands 45.1 µM (inactive); under `COc1cc(OC)cc(Oc2nc3ccccc3nc2C(F)(F)F)c1`, > 100 µM (inactive).
On the same count and under the same terms, under `CCOC(=O)c1c(-c2ccc(Cl)cc2)c(C#N)c(=S)n(C2OC(CO)C(O)C(O)C2O)c1-c1ccccc1` (stereo unspecified) stands 29.4 µM (inactive).
On the same count and under the same terms, with `CC(C)(C)OC(=O)N1C(=O)C2CCCC21` (stereo unspecified) the figure was > 100 µM (inactive).
On to `Nc1nc(-c2ccccc2)nc2oc(-c3cccs3)nc12`, for which, in the test with BT-549, the GI50 was > 100 µM (inactive).
Still for that read-out and setting: under `CCCC(=O)NC(Nc1ccc(S(=O)(=O)Nc2nc(C)cc(C)n2)cc1)(C(F)(F)F)C(F)(F)F` stands > 100 µM (inactive); under `CCCCN(C)C(=O)C1=C(C)NC(C)=C(C(=O)N(C)CCCC)C1`, > 100 µM (inactive).
`OC12CCC3(O)c4ccccc4C3C1c1ccccc12` (stereo unspecified): the GI50 in the test with DMS-273, in the test with HOP-18, in the test on KM-20L2, with LXFL 529, in the test on M19-MEL and with XF498 was > 100 µM (inactive) each time.
Turning to `COc1cc(C2(O)c3ccccc3C3=NCCN32)cc(OC)c1OC` (stereo unspecified), in the test on BT-549, the GI50 was > 100 µM (inactive).
For the compound `C/C(=N\O)C(CN(C)C)C(c1ccccc1)c1c(O)c2ccccc2oc1=O` (stereo unspecified), the GI50 in the test on DMS-114, in the test on DMS-273, in the test on KM-20L2, in the test on LXFL 529, in the test on M19-MEL and in the test with XF498 was > 100 µM (inactive) each time.
Turning to `Cc1ccsc1/C=N/NC1=NCCN1`, the GI50 with BT-549 is > 100 µM (inactive).
On the same count and under the same terms, with `CC(=O)Oc1ccc(-c2nnc(-c3ccc(OC(C)=O)cc3)nn2)cc1` the figure was > 100 µM (inactive).
Same read-out and setting: under `CCC1(C)C=Cc2c(cc(O)c3c(=O)c4ccccc4n(C)c23)O1` (stereo unspecified) stands > 10 µM (inactive); under `O=C1CC(c2ccccc2Cl)C2(C(=O)NC(=O)NC2=O)C(c2ccccc2Cl)C1` (stereo unspecified), > 100 µM (inactive); under `S=c1sc2c(s1)SCCCCSCCCCSc1sc(=S)sc1SCCCCSCCCCS2`, > 100 µM (inactive).
For `CN(C)c1ccc(/N=C2/C=CC(=C(C#N)C#N)c3ccccc32)cc1`, the GI50 is 0.828 µM (active) in the test with BT-549; 0.234 µM (active) in the test on DMS-114; 0.303 µM (active) in the test on DMS-273; 1.14 µM (inactive) in the test on HOP-18; 0.209 µM (active) in the test on KM-20L2; 0.904 µM (active) in the test with M19-MEL. The GI50 with XF498 is 0.261 µM (active).
